Tests used:
CK1γ3 [1] = target: T1, CK1γ3 (Homo sapiens, UniProt Q9Y6M4); assay: CK1γ3 NanoBRET assay with tracer 23, intact cells; type: cell-based; settings: intact HEK293 cells, N = 1
Target sequence in this assay (Q9Y6M4 whole entry): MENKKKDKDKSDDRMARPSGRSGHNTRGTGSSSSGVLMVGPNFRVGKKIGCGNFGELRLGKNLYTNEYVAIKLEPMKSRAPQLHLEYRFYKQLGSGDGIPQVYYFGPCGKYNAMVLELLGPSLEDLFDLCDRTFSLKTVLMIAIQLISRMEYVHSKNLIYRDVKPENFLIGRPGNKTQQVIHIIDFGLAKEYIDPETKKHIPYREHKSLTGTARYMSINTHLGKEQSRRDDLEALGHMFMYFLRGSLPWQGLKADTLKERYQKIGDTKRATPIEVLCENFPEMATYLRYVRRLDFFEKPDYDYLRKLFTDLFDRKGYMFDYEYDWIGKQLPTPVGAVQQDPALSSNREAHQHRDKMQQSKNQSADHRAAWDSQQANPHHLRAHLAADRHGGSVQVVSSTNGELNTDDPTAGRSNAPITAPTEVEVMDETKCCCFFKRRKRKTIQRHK

CK1γ2 [2] = target: T2, CK1γ2 (Homo sapiens, UniProt P78368); assay: CK1γ2 NanoBRET assay with tracer 23, intact cells; type: cell-based; settings: intact HEK293 cells, N = 1
CK1γ1 [3] = target: T3, CK1γ1 (Homo sapiens, UniProt Q9HCP0); assay: CK1γ1 NanoBRET assay with tracer 23, intact cells; type: cell-based; settings: intact HEK293 cells, N = 1
T3 sequence (Q9HCP0 whole entry): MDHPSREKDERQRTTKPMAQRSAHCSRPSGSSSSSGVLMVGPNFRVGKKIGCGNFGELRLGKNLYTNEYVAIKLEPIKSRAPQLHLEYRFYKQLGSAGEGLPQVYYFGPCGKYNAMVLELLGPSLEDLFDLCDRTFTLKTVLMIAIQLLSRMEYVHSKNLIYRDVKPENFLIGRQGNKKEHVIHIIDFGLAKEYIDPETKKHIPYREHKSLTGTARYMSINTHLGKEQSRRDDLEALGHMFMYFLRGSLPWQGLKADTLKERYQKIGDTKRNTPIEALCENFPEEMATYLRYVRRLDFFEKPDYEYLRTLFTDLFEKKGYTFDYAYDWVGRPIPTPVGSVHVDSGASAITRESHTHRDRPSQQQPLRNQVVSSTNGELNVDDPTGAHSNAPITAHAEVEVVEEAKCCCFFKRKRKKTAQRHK

CK1γ3 [4] = target: T1, CK1γ3; assay: Eurofins radiometric enzymatic assay CK1γ3; type: biochemical; settings: read-out: enzymatic IC50 CK1γ3, ATP at Km, N = 1
Target sequence in this assay (Q9Y6M4 33-362): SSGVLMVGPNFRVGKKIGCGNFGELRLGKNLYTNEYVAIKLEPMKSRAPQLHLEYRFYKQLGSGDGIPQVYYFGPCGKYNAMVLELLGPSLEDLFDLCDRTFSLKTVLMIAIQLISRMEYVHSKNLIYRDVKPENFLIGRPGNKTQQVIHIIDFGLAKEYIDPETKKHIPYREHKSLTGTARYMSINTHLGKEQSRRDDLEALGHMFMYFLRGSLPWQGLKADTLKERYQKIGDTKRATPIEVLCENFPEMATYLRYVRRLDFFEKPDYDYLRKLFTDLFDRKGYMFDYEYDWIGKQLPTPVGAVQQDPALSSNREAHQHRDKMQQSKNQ

CK1γ2 [5] = target: T2, CK1γ2; assay: Eurofins radiometric enzymatic assay CK1γ2; type: biochemical
CK1γ1 [6] = target: T3, CK1γ1; assay: Eurofins radiometric enzymatic assay CK1γ1; type: biochemical
[7] = tested on: LRP6 phosphorylation at T1479; assay: Western blot of LRP6 phosphorylation in HEK293 cells; type: cell-based, human; settings: 5 μM, WNT3A and R-Spondin-1, 2 h
panel of 192 kinases [8] = target: panel of 192 kinases (Homo sapiens, UniProt Q9HAZ1); assay: K192 NanoBRET kinase selectivity panel; type: cell-based; settings: read-out: %Fractional Occupancy
Sequence of panel of 192 kinases (Homo sapiens, UniProt Q9HAZ1) (Q9HAZ1 whole entry): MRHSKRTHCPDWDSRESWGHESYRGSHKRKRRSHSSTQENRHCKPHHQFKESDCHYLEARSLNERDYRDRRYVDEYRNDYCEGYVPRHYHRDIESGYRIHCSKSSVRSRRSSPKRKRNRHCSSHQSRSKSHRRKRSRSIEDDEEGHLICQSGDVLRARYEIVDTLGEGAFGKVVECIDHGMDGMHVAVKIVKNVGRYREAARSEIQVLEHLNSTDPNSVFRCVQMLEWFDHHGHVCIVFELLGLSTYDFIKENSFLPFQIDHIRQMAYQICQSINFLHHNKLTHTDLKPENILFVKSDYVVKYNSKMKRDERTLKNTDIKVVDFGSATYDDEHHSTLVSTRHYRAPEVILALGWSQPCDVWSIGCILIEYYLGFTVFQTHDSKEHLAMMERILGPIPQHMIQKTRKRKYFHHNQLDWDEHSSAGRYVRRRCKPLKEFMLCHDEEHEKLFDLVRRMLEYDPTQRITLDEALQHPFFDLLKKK

CLK4 = CLK4 (Homo sapiens, UniProt Q9HAZ1); assay: CLK4 NanoBRET assay
Sequence of CLK4 (Q9HAZ1 whole entry): as above

panel of 192 kinases [9] = target: panel of 192 kinases (Homo sapiens, UniProt P78368); assay: K192 NanoBRET kinase selectivity panel; type: cell-based; settings: read-out: %Fractional Occupancy
Sequence of panel of 192 kinases (Homo sapiens, UniProt P78368) (P78368 whole entry): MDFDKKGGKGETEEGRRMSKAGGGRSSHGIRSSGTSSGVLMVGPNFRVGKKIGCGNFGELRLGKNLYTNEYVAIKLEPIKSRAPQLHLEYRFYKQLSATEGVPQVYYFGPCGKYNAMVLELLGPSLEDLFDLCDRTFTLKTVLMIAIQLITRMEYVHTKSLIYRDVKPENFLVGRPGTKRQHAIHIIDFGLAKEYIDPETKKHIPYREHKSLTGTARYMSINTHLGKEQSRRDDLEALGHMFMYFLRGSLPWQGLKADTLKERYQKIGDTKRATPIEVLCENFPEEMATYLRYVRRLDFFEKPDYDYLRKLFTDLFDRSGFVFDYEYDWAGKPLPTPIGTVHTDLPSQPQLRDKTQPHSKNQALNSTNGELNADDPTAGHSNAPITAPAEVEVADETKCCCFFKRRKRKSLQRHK

HEK293 cells = assay: CellTiter-Glo HEK293 cell viability assay; type: cell-based, human; settings: 10 μM for 24 or 48 h
Dynamic light scattering = type: physicochemical; settings: HBS buffer, 2% DMSO, 25 °C
MOK = target: T4, MOK (Homo sapiens, UniProt Q9UQ07); assay: MOK NanoBRET assay; type: cell-based
T4 sequence (Q9UQ07 1-419): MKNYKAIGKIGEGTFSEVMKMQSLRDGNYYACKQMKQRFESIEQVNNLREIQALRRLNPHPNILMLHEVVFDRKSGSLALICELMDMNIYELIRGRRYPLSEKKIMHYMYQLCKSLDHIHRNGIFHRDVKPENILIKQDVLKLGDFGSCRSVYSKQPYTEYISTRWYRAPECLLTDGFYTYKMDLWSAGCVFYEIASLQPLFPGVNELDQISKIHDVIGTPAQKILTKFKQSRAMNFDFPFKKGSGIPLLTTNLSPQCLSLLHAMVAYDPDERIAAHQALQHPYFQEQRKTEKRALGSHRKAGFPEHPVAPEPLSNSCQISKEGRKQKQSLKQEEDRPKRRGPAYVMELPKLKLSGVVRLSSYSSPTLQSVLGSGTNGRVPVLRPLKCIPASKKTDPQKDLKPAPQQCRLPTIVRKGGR

[10] = read-out: NB IC50 CK1γ3, tracer 23
[11] = read-out: NB IC50 CK1γ2, tracer 23
[12] = read-out: NB IC50 CK1γ1, tracer 23

T2 sequence (P78368 whole entry): as the sequence (P78368 whole entry) above

IC50 (CK1γ3 [1]; NB IC50 CK1γ3, tracer 23) [nM]	IC50 (CK1γ3 [4]) [nM]	IC50 (CK1γ2 [2]; NB IC50 CK1γ2, tracer 23) [nM]	IC50 (CK1γ1 [3]; NB IC50 CK1γ1, tracer 23) [nM]	IC50 (CK1γ2 [5]) [nM]	IC50 (CK1γ1 [6]) [nM]	SMILES	further results
–	–	–	–	–	–	Nc1nccc(-c2c(-c3ccc(F)cc3)ncn2C2CCCCC2)n1 [PF-670462, reference compound]	IC50 (CK1γ3 [1]; [10]): > 30000 nM; IC50 (CK1γ2 [2]; [11]): > 30000 nM; IC50 (CK1γ1 [3]; [12]): > 30000 nM
110	700	110	580	–	–	N#Cc1ccc2nc(Nc3ccc(N4CCOCC4)c(Br)c3)[nH]c2c1 [Compound 15, 2-((3-Bromo-4-morpholinophenyl)amino)-1H-benzo[d]imidazole-6-carbonitrile]	–
–	–	–	–	–	–	Cc1ccc2nc(NC(=O)CSc3nc4c(c(=O)n3-c3ccc(F)cc3)SCC4)sc2c1 [IWP-3, reference compound]	IC50 (CK1γ3 [1]; [10]): > 30000 nM; IC50 (CK1γ2 [2]; [11]): > 30000 nM; IC50 (CK1γ1 [3]; [12]): > 30000 nM
300	475	250	380	–	–	N#Cc1ccc2[nH]c(Nc3ccc(N4CCCCC4)c(Cl)c3)nc2c1 [Compound 20, 2-((3-Chloro-4-(piperidin-1-yl)phenyl)amino)-1H-benzo[d]imidazole-5-carbonitrile]	–
> 30000	2750	> 30000	> 30000	4170	5520	COc1cc(N2CCOCC2)ccc1Nc1nc2ccc(C#N)cc2[nH]1 [Compound 5, 2-((2-Methoxy-4-morpholinophenyl)amino)-1H-benzo[d]imidazole-6-carbonitrile]	LRP6 phosphorylation at T1479 [7]: did not occur
180	431	220	170	–	–	CN1CCN(c2ccc(Nc3nc4ccc(C#N)cc4[nH]3)cc2Cl)CC1 [Compound 21, 2-((3-Chloro-4-(4-methylpiperazin-1-yl)phenyl)amino)-1H-benzo[d]imidazole-6-carbonitrile]	receptor occupancy at 1 µM (panel of 192 kinases [8]): 49%; IC50 (CLK4): 570 nM
1350	–	780	1400	34	120	N#Cc1ccc2nc(Nc3ccc(N4CCOCC4)c(C(F)(F)F)c3)[nH]c2c1 [Compound 10, 2-((4-Morpholino-3-(trifluoromethyl)phenyl)amino)-1H-benzo[d]imidazole-6-carbonitrile]	–
3300	976	–	920	25	121	N#Cc1ccc2nc(Nc3cc(F)c(N4CCOCC4)c(F)c3)[nH]c2c1 [Compound 11, 2-((3,5-Difluoro-4-morpholinophenyl)amino)-1H-benzo[d]imidazole-6-carbonitrile]	–
–	1300	920	910	81	430	N#Cc1ccc2nc(Nc3ccc(N4CCOCC4)cc3)[nH]c2c1 [Compound 4, 2-((4-morpholinophenyl)amino)-1H-benzo[d]imidazole-6-carbonitrile]	–
–	958	180	180	–	–	N#Cc1ccc2nc(Nc3ccc(N4CCOCC4)c(Cl)c3)[nH]c2c1 [Compound 14, 2-((3-Chloro-4-morpholinophenyl)amino)-1H-benzo[d]imidazole-6-carbonitrile]	receptor occupancy at 1 µM (panel of 192 kinases [9]): 74%; HEK293 cell viability (CellTiter-Glo) (HEK293 cells): did not impact cell viability; aqueous solubility in DLS (Dynamic light scattering): good aqueous solubility; IC50 (MOK): > 5000 nM
–	656	770	980	34	212	N#Cc1ccc2nc(Nc3ccc(N4CCOCC4)c(F)c3)[nH]c2c1 [Compound 9, 2-((3-Fluoro-4-morpholinophenyl)amino)-1H-benzo[d]imidazole-6-carbonitrile]	–

Source: paper PMC12910644 (Journal of Medicinal Chemistry, 2026)
